According to US6544964B1, “Method for fixing or separating ions, in particular of lead, using per(3,6-anhydro)cy-clodextrin derivatives” (priority 1997, dated 2003):

Experiments:
[1] = Formation of the lead complex in aqueous solution, followed by proton NMR; type: binding
Experimental: (§1) To an aqueous solution of the permethyl derivative obtained in example 1 is added an aqueous lead nitrate solution in order to obtain an aqueous solution containing 3 mmole/l of permethyl derivative and 1 mmole/l of lead nitrate. The solution obtained is analyzed by nuclear magnetic resonance under the same conditions as in example 1 (500 MHz, D2O, 298 K).
In this case, the exchange is sufficiently slow compared with the NMR observation time, to observe the two signals corresponding to the free cyclodextrin (FIG. 1(a)) and to the complex (FIG. 1(b)).
(§2) The same operating procedure as in example 2 is followed, but the aqueous solution incorporates 3 mmole/l of the permethyl derivative of example 1 and 3 mmole/l of lead nitrate.
(§3) The same operating procedure as in example 3 is followed, but addition also takes place of sodium nitrate so as to obtain an aqueous solution incorporating 3 mmole/l of the permethyl derivative of example 1, 3 mmole/l of lead nitrate and 3 mmole/l of sodium nitrate.

[2] = Affinity constant for Pb from the NMR results of examples 2 to 4; type: binding; conditions: aqueous solution (D2O), 298 K
Experimental: as §1, §2, §3

Substance	NMR spectrum of the lead complex in presence of sodium ions ([1]; 3 mmole/l derivative, 3 mmole/l lead nitrate, 3 mmole/l sodium nitrate)	lead complexation (respective surfaces of free and complexed parts) ([1]; 3 mmole/l permethyl derivative, 1 mmole/l lead nitrate, D2O, 298 K, 500 MHz, free:complexed 2 for 1)	lead complexation (NMR signals) ([1]; 3 mmole/l permethyl derivative, 3 mmole/l lead nitrate, D2O, 298 K)	affinity constant for Pb [2]
Hexakis (3,6-Anhydro-2-0-methyl)cyclomaltohexaose [Example 1]	not modified	all the lead present is complexed	only the signals of the complex are visible	approximately 10^5
hexakis (3,6-anhydro)cyclomaltohexaose [reference compound]				approximately 2500
